Assay results from US20100076015A1, “Aminopyridine Derivatives” (VANTIA LIMITED, priority 2008, published 2010).

Each molecule was assayed against T1, Human KLK1 (Homo sapiens, UniProt P06870) (assay: Determination of the IC50 for KLK1 (fluorogenic substrate H-DVal-Leu-Arg-AFC)). Conditions: 37° C.
T1 construct: purchased Callbiochem (Calbiochem)
Type: biochemical
How it was run: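 IC50 values reflect residual human KLK1 activity, read as initial rate from optical absorbance change at 410 nm. Incubations ran at 37° C with H-DVal-Leu-Arg-AFC as substrate across a compound concentration series.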

T1 sequence (P06870 25-262): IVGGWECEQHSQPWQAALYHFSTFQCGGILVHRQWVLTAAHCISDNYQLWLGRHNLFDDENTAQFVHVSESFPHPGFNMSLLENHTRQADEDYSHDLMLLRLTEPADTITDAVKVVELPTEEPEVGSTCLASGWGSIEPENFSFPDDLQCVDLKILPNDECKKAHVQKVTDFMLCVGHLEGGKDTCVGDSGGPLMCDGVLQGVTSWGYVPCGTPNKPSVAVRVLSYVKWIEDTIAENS

Row | IC50 [nM] | Compound
1 | 5.9 | Cc1nc(N)ccc1CNC(=O)[C@H](Cc1ccc(F)cc1)NC(=O)[C@H]1CCCN1C [Example 204, (R)-1-Methyl-pyrrolidine-2-carboxylic acid [(S)-1-[(6-amino-2-methyl-pyridin-3-ylmethyl)-carbamoyl]-2-(4-fluoro-phenyl)-ethyl]-amide]
2 | 6.7 | Cc1nc(N)ccc1CNC(=O)[C@H](Cc1ccc(F)c(F)c1)NC(=O)[C@H]1CCCN1C [Example 205, (R)-1-Methyl-pyrrolidine-2-carboxylic acid [(S)-1-[(6-amino-2-methyl-pyridin-3-ylmethyl)-carbamoyl]-2-(3,4-difluoro-phenyl)-ethyl]-amide]
3 | 32.1 | CCC(C)[C@@H](N)C(=O)N[C@@H](CC1CCCC2CCCCC21)C(=O)NCc1c(C)cc(N)nc1C (stereo partly drawn) [Example 208, (R)-2-Amino-3-methyl-pentanoic acid [(S)-1-[(6-amino-2,4-dimethyl-pyridin-3-ylmethyl)-carbamoyl]-2-(decahydro-naphthalen-1-yl)-ethyl]-amide]
4 | 36 | CCC(C)[C@@H](N)C(=O)N[C@@H](Cc1cccc2ccccc12)C(=O)NCc1cnc(N)c(C)c1 (stereo partly drawn) [Example 209, (R)-2-Amino-3-methyl-pentanoic acid {(S)-1-[(6-amino-5-methyl-pyridin-3-ylmethyl)-carbamoyl]-2-naphthalen-1-yl-ethyl}-amide]
5 | 39 | CS(=O)(=O)N1CCC[C@@H]1C(=O)N[C@@H](Cc1ccc(Cl)c(Cl)c1)C(=O)NCc1ccc(N)nc1 [Example 210, (R)-1-Methanesulfonyl-pyrrolidine-2-carboxylic acid [(S)-1-[(6-amino-pyridin-3-ylmethyl)-carbamoyl]-2-(3,4-dichloro-phenyl)-ethyl]-amide]
6 | 0.29 | CCC(C)[C@@H](NS(C)(=O)=O)C(=O)N[C@@H](Cc1ccc(Cl)c(Cl)c1)C(=O)NCc1ccc(N)nc1 (stereo partly drawn) [Example 211, (R)-2-Methanesulfonylamino-3-methyl-pentanoic acid [(S)-1-[(6-amino-pyridin-3-ylmethyl)-carbamoyl]-2-(3,4-dichloro-phenyl)-ethyl]-amide]
7 | 29.8 | C[C@H](C(=O)N[C@@H](Cc1ccc(Cl)c(Cl)c1)C(=O)NCc1ccc(N)nc1)N(C)S(C)(=O)=O [Example 212, (R)—N-[(S)-1-[(6-Amino-pyridin-3-ylmethyl)-carbamoyl]-2-(3,4-dichloro-phenyl)-ethyl]-2-(methanesulfonyl-methyl-amino)-propionamide]
8 | 16.9 | CCC(C)[C@@H](N)C(=O)N[C@@H](C(=O)NCc1ccc(N)nc1)C(C1CCCCC1)C1CCCCC1 (stereo partly drawn) [Example 214, (R)-2-Amino-3-methyl-pentanoic acid {(R)-1-[(6-amino-pyridin-3-ylmethyl)-carbamoyl]-2,2-dicyclohexyl-ethyl}-amide]
9 | 12.6 | Nc1ccc(CNC(=O)[C@H](NC(=O)[C@@H]2CCCN2)C(C2CCCCC2)C2CCCCC2)cn1 [Example 215, (S)-Pyrrolidine-2-carboxylic acid {(R)-1-[(6-amino-pyridin-3-ylmethyl)-carbamoyl]-2,2-dicyclohexyl-ethyl}-amide]
10 | 24.4 | Nc1ccc(CNC(=O)[C@H](NC(=O)[C@@H](N)Cc2ccccc2)C(C2CCCCC2)C2CCCCC2)cn1 [Example 216, (S)-2-Amino-N-{(R)-1-[(6-amino-pyridin-3-ylmethyl)-carbamoyl]-2,2-dicyclohexyl-ethyl}-3-phenyl-propionamide]
11 | 29.3 | CC(C)(C)[C@H](N)C(=O)N[C@@H](C(=O)NCc1ccc(N)nc1)C(C1CCCCC1)C1CCCCC1 [Example 217, (S)-2-Amino-N-{(R)-1-[(6-amino-pyridin-3-ylmethyl)-carbamoyl]-2,2-dicyclohexyl-ethyl}-3,3-dimethyl-butyramide]
12 | 35.3 | CN[C@@H](C)C(=O)N[C@@H](C(=O)NCc1ccc(N)nc1)C(C1CCCCC1)C1CCCCC1 [Example 218, (S)—N-{(R)-1-[(6-Amino-pyridin-3-ylmethyl)-carbamoyl]-2,2-dicyclohexyl-ethyl}-2-methylamino-propionamide]
